PubChem BioAssay (NCI)
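Grown in 96-well plates, cells were treated for 48 hours with each compound at five concentrations. Insufficient inhibition: endpoint recorded as highest concentration tested. The concentration for 50% growth inhibition is given as GI50. TGI is the concentration that stops growth completely.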

Assays:
Assay in all cases: NCI anticancer screen, dose series, 48 h
NCI-H460 lung = tested on: NCI-H460 lung
T-47D breast = tested on: T-47D breast
KM12 colon = tested on: KM12 colon
HL-60(TB) leukemia = tested on: HL-60(TB) leukemia
MDA-MB-231 breast = tested on: MDA-MB-231 breast
COLO 205 colon = tested on: COLO 205 colon
SN12C renal = tested on: SN12C renal
CCRF-CEM leukemia = tested on: CCRF-CEM leukemia
RXF 393 renal = tested on: RXF 393 renal
OVCAR-3 ovarian = tested on: OVCAR-3 ovarian

Row | Compound | GI50 (NCI-H460 lung) | TGI (NCI-H460 lung) | GI50 (T-47D breast) | TGI (T-47D breast) | GI50 (KM12 colon) | TGI (KM12 colon) | GI50 (HL-60(TB) leukemia) | TGI (HL-60(TB) leukemia) | GI50 (MDA-MB-231 breast) | TGI (MDA-MB-231 breast) | GI50 (COLO 205 colon) | TGI (COLO 205 colon) | GI50 (SN12C renal) | TGI (SN12C renal) | GI50 (CCRF-CEM leukemia) | TGI (CCRF-CEM leukemia) | GI50 (RXF 393 renal) | TGI (RXF 393 renal) | GI50 (OVCAR-3 ovarian) | TGI (OVCAR-3 ovarian)
1 | CSc1ccc2c3c(n(C[C@H](O)CO)c(=O)c2c1)-c1ccccc1C3=O | 0.476 µM | 2.33 µM | 2.85 µM | 45.8 µM | 2.26 µM | 10.3 µM | 1.81 µM | 11.7 µM | 3.13 µM | 15.1 µM | 2.94 µM | 21.1 µM | 1.94 µM | 13.6 µM | 1.02 µM | 7.1 µM | 3.5 µM | 23.3 µM | 4.33 µM | 41.9 µM
2 | O=C(O)c1ccc(N/C=C2\C(=O)c3ccccc3OC2O)cc1O (stereo not given) | 32.3 µg/mL | 78.3 µg/mL | 6.18 µg/mL | 50.3 µg/mL | 23.4 µg/mL | 48.5 µg/mL | 9.35 µg/mL | > 150 µg/mL | 22 µg/mL | 54.6 µg/mL | 30.5 µg/mL | 76.4 µg/mL | 20.2 µg/mL | 58.8 µg/mL | 13.8 µg/mL | 59.6 µg/mL | 12.6 µg/mL | 34.5 µg/mL | 8.41 µg/mL | 41.9 µg/mL
3 | COc1ccc(Cl)cc1NC(=O)C(Br)C(Br)C(=O)O (stereo not given) | 38 µM | > 100 µM | 3.27 µM | 14.3 µM | 16.3 µM | 39.2 µM | 5.61 µM | > 100 µM | 9.23 µM | 26 µM | 18.1 µM | 34 µM | 4.02 µM | 18.4 µM | 2.9 µM | > 100 µM | 18.8 µM | 40.9 µM | 2.63 µM | 6.81 µM
4 | COc1ccc(/C=C/C(=O)Oc2cc(O)cc(O)c2)cc1 |  | > 100 µM |  | > 100 µM |  | 28.4 µM |  | 55.5 µM |  | > 100 µM |  | > 100 µM |  | > 100 µM |  | 37.3 µM |  | > 100 µM |  | 32.1 µM
5 | O=C(Nc1ccccc1O)c1ccc(Oc2cccc(C(=O)Nc3ccccc3O)c2)cc1 | 1.21 µM | 11 µM | 3.13 µM | 10.1 µM | 3.17 µM | 11.9 µM | 1.37 µM | 10.4 µM | 2.22 µM | 11.8 µM | 15.7 µM | 29.9 µM | 2.84 µM | 17.9 µM | 0.409 µM | 9.15 µM | 1.81 µM | 6.42 µM | 3.28 µM | 9.86 µM
6 | O=c1cc(-c2ccccc2)[nH]n1-c1nc2ccccc2[nH]1 | 2.51 µM | > 100 µM | 4.41 µM | > 100 µM | 5.28 µM | > 100 µM | 4.52 µM | 29.1 µM | 6.92 µM | 93.6 µM | 27.8 µM | > 100 µM | 6.84 µM | > 100 µM | 1.22 µM | > 100 µM | 3.94 µM | 34.8 µM | 4.46 µM | > 100 µM
